From patent US4199579A, “Carbamates of 2-haloergolines and 2-haloergolenes and process for the preparation thereof” (priority 1975, dated 1980)
≈ marks a conversion by molar mass, not a printed value. Read-outs that look alike come from different tables or passages of the source.

Tests used:
[1] = system: alpha-adrenergic receptors; assay: Antiadrenalic (antiadrenergic) activity in vitro (a): antagonism of the spasmogenic effect of adrenaline on the seminal vesicle; type: cell-based, guinea pig
Source text: More particularly the novel compounds display a vasodilatory activity on the peripheral circulatory system, an hypotensive activity and a spasmolytic effect on the gastrointestinal smooth muscles or a blocking activity towards the alpha-adrenergic receptors, both in "vitro" and in "vivo".
(a) J. Brugger, Helv. Physiol. Pharmacol. Acta 3, 117 (1945)
The product is antagonizing the spasmogenic effect of the adrenaline on the seminal vesicle of guinea pig at concentrations of between 0.1 and 10 pg/ml, as well as the vaso- constricting effect of the noradrenaline on the isolated and perfused caudal arteria of rat, at dosages of between 1 and 10 μg total. Furthermore it antagonizes the contracturing effect of adrenaline and noradrenaline on the "vas deferens" of guinea pig and rat, at concentrations of 0.1 to 10 ng/ml.

[2] = system: alpha-adrenergic receptors; assay: Antiadrenalic activity in vivo (b): protection of rats from the lethal effect of adrenaline; set-up: species or system rat; conditions: e.v.; Table 2
[3] = system: isolated ileum of guinea pig; assay: AntiBaCl2 activity in vitro (c): antagonism of the spasmogenic action of barium chloride on the isolated ileum; type: cell-based; conditions: Cavia porcellus, read-out: AntiBaCl2 (c) vitro EC50
Description: (c) Magnus, Pflugers Arch.Ges.Physiol. 102, 123 (1904)
The substance antagonizes the spasmogenic action of the barium chloride on the isolated ileum of guinea pig at dosages of between 1 and 5 μg/ml. […] On the isolated caudal arteria of rat, the compound II inhibits the vaso-constricting effect as caused by the perfusion with hyperpotassium Ringer's solution.

[4] = Acute toxicity in mice; type: in vivo, mouse; conditions: mouse, in vivo, mouse
Source text: |Toxicity LD50 mice orally

[5] = system: asthma; assay: Anti-asthmatic activity (Goose, Immunology, 16, 749, 1969); type: in vivo
Source text: (§1) Coming now to examining the anti-asthmatic pharmaceutical compositions it has been ascertained that the compound described as D-2-bromo-6-methyl-8beta-(morpholinocarbolynoxymethyl)-ergoline, corresponding to the formula (4) is endowed with quite special [drawing 81] which render it particularly recommendable for the therapy of asthma. The compound of the formula (4) has the empirical formula C21 H26 N3 O3 Br and a mol. wt. of 448.38. It gives, with mineral and organic acid of nontoxic and pharmacologically acceptable nature, a number of salt. These are soluble in water as well as in the physiological solutions. Such are for example the maleate C25 H30 N3 O7 Br, m.p. 213° C.-216° C., or the methanesulfonate C22 H30 N3 O6 BrS, m.p. 265° C.-266° C. and can be prepared according to the conventional methods by treating the compound (4) with the equivalent quantities of the acid in an aqueous medium or in appropriate organic solvents and their mixtures such as the alcohols, the ethers, the lower aliphatic ketones and others, taken individually or in appropriate mixtures with each other as will be detailed in the Examples hereinafter. The pharmacological activity of the compound of formula (4) is unfolded in appropriate assays, carried out on the test animals and is especially conspicuous in the following test runs:
Goose, Sodium ED100 5 mg/kg intrav.

[6] = system: Antidepressant activity; assay: Antidepressant activity; type: in vivo
Source text: as §1, with “runs: […]” for “runs:”

[7] = system: Myorelaxing activity; assay: Myorelaxing activity; type: in vivo
Source text: as §1, with “runs: […]” for “runs:”

[8] = system: adrenergic activity; assay: Adrenergic activity of compound (4) in vitro; type: cell-based
Source text: All of these activities of an accessorial nature which unfold themselves at dosages which are considerably higher than those which cause the antiasthmatic effect, should be regarded as favorable factors in the sense that they improve the pharmacological pattern of the product, so that a possible therapeutic use of the product for patients suffering from asthma, […], can be forecast.

[9] = system: asthma; conditions: pharmacological aspect; cited from earlier work

SMILES | Antiadrenalic activity (a) vitro EC50 [1] [µg/mL] | Antiadrenalic activity (b) vivo ED50 [2] [mg/kg] | EC50 [3] [µg/mL] | LD50 ([4]; iv, e.v., Table 2, read-out: DL50 e.v. in the mouse) [mg/kg] | LD50 ([4]; iv, mice, intrav., compound (4), read-out: Toxicity LD50 mice intrav.) [mg/kg] | LD50 ([4]; po, mice, orally, compound (4), read-out: Toxicity LD50 mice orally) [mg/kg] | selectivity ratio ([4]; margin of safety, read-out: multiple of the therapeutic dosage beyond which toxic effects become apparent) | dosage level of anti-asthmatic action compared with sodium chromoglycate ([5]; by the oral route) | activity against asthmatic seizures in words ([5]; in vivo) | ED100 ([5]; po, orally) [mg/kg] | ED100 ([6]; po, orally) [mg/kg] | antidepressant activity in words ([6]; versus imipramine) | ED100 ([7]; route not given) [mg/kg] | myorelaxing activity in words ([7]; versus phenobarbital) | adrenergic activity in vitro [8] | ED100 ([5]; iv, intrav.) [mg/kg] | route by which the anti-asthmatic activity is manifested [9]
CN1C[C@H](COC(=O)N2CCOCC2)C[C@@H]2c3cccc4[nH]c(Br)c(c34)C[C@H]21 [Example 16, D-2-bromo-6-methyl-8beta-(morpholinocarbonyloxymethyl)-ergoline] | 0.0058 | 0.0419 | 7.5 (≈ 16.7 µM) | 20.5 | 18 to 22 | 180 | > 1000 | considerably lower dosage levels | both selectivity and a powerful activity against asthmatic seizures | 0.25 | 5 | considerable antidepressant activity which can be compared to that of imipramine | 100 | remarkable myorelaxing activity which is comparable to that of phenobarbital | powerful adrenergic activity |  | 
O=C(O)c1cc(=O)c2c(OCC(O)COc3cccc4oc(C(=O)O)cc(=O)c34)cccc2o1 [Sodium chromoglycate, reference compound] |  |  |  |  |  |  |  |  |  |  |  |  |  |  |  | 5 | manifested only by the parentheral administration (intravenously), and, in man by inhalation of the dispersed powder
